Measurements from US7531320B2, “Modulation of β-catenin/TCF-activated transcription” (priority 2003, dated 2009).

Assays:
[1] = tested on: β-catenin/TCF reporter gene construct; experiment: β-catenin/TCF luciferase reporter assay in SW480 cells; format: cell-based, human
Protocol: FIG. 1. COMPOUND 1 inhibits β-catenin/TCF transcription. • A(i) and A(ii). Structures of COMPOUND 1, COMPOUND 2, COMPOUND 3, COMPOUND 4, and COMPOUND 5. • B(i) and B(ii). […] SW480 cells (10^5), (FIG. 1B(i)), were transfected with β-catenin/TCF luciferase construct. Cells were treated with COMPOUND 1 (1-64 μM). 24 hours post treatment lysates were prepared and subjected to dual luciferase assay. The data is represented in different form in FIG. 1B(ii). • C. COMPOUND 1 has no effect on NFAT reporter construct. Stably transfected Jurkat cells, right panel, with an NFAT reporter construct, were stimulated with PMA (10 ng/ml)/lonomycin (1 μg/ml), and treated with COMPOUND 1 (0.781-50 μM). 24 hours post treatment lysates were prepared and subjected to dual luciferase assay. All experiments were performed in duplicate and the values plotted as means +/−standard deviation. • D. CBP is the molecular target of COMPOUND 1. Nuclear extracts of SW480 cells were incubated with streptavidin-agarose beads coated with COMPOUND 2 (25 μM). Beads were washed 3 times and the eluted were subjected to gel electrophoresis and immunoblotting, with anti-CBP antibodies. […] The lysates were desalted using G-25 1 cc columns (Pharmacia) to remove the unbound ^14C-labeled-COMPOUND 1, and ^14C-labeled-COMPOUND 1 incorporation was measured. […]

[2] = target: T1, CBP (1-111) (Mus musculus, UniProt P45481); experiment: Pull-down of CBP deletion constructs on COMPOUND 2 coated beads, competition with excess COMPOUND 1; format: binding; details: CBP (1-111), (1-211), (1-351) in SW480 lysates, 150 μM COMPOUND 1
T1 construct: 6xHis (C); HSV tag (C); expressed in transfected cells

[3] = tested on: nuclear β-catenin in SW480 cells; experiment: β-catenin immunofluorescence and western blot localization in SW480 cells; format: cell-based, human; details: 25 μM, 24 hours
Protocol: FIG. 4. COMPOUND 1 decreases nuclear β-catenin • A. β-catenin immunofluorescence microscopy. Log phase SW480 (left) and HCT116 (right) cells were fixed and stained with either anti-β-catenin red (upper panel, A) or anti-CBP (upper panel, B) green. The center panel represents the superimposed β-catenin and CBP in SW480 (left) and HCT116 (right) cells. […] 25 μg of total protein from the cell extracts of SW480 cells with or without 24 hr treatment of COMPOUND1 was used for detection of cytosolic and nuclear β-catenin.
Immunofluorescence was used to examine the localization of CBP and β-catenin in SW480 and HCT116 cells treated with COMPOUND 1 (25 μM) or control (0.5% DMSO). Cells at log phase were seeded and after 24 hours, the cells were treated with COMPOUND 1 or control. 24 hours post treatment, cells were fixed. The coverslips were incubated with antibodies raised against CBP (A-22) (Santa Cruz Biotechnology) and β-catenin (Transduction Laboratories), respectively. The slides were examined using a Nikon PCM 2000 Laser Scanning Confocal Microscope after the secondary antibodies conjugated to either FITC or TRITC (Jackson ImmunoResearch, Westgrove, Pa.) were applied.
The subcellular distribution of β-catenin and CBP was examined in order to determine whether the localization of either was affected by COMPOUND 1. […]

T1 sequence (P45481 1-110): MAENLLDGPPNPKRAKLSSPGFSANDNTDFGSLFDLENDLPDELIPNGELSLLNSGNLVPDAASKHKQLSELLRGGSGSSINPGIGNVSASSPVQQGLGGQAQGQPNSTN

O=C1C(Cc2ccc(O)cc2)N2C(=O)CCN(C(=O)NCc3ccccc3)C2CN1Cc1cccc2ccccc12 (stereo not shown) [COMPOUND 1]
Change of IC50 of COMPOUND 1 on transfection of increasing concentration of CBP ([1]; SW480 cells cotransfected with CBP (not β-catenin), dose-dependent): increased the IC50 | IC50 ([1]; SW480 cells, 1-64 μM, 24 hours post treatment, dual luciferase assay): 5 µM | Competition of CBP fragment binding to COMPOUND 2 beads by excess COMPOUND 1 [2]: strongly competed away | Subcellular distribution of β-catenin [3]: caused translocation of β-catenin to the cytoplasm
